≈ marks a conversion by molar mass, not a printed value.
How the values were obtained:
Type in all cases: functional
Streptococcus pneumoniae [1] = experiment: Antibacterial activity against penicillin-nonsusceptible Streptococcus pneumoniae clinical isolate by broth microdilution method
Streptococcus pneumoniae [2] = experiment: Antibacterial activity against penicillin-susceptible Streptococcus pneumoniae clinical isolate by broth microdilution method
Enterococcus faecium [3] = experiment: Antibacterial activity against linezolid-resistant Enterococcus faecium 03B1073 by broth microdilution method
Enterococcus faecium [4] = experiment: Antibacterial activity against linezolid-resistant Enterococcus faecium 03B1074 by broth microdilution method
Corynebacterium sp. = experiment: Antibacterial activity against Corynebacterium sp. by broth microdilution method
[5] = system: Staphylococcus epidermidis; experiment: Antibacterial activity against methicillin-susceptible Staphylococcus epidermidis clinical isolate by broth microdilution method
Staphylococcus aureus [6] = experiment: Antibacterial activity against methicillin-susceptible Staphylococcus aureus clinical isolate by broth microdilution method
Enterococcus faecium [7] = experiment: Antibacterial activity against vancomycin-susceptible Enterococcus faecium clinical isolate by broth microdilution method
Enterococcus faecium [8] = experiment: Antibacterial activity against vancomycin-resistant Enterococcus faecium clinical isolate by broth microdilution method
Enterococcus faecalis [9] = experiment: Antibacterial activity against vancomycin-susceptible Enterococcus faecalis clinical isolate by broth microdilution method
Staphylococcus aureus [10] = experiment: Antibacterial activity against linezolid-resistant Staphylococcus aureus 01A1220 by broth microdilution method
Staphylococcus = experiment: Antibacterial activity against coagulase-negative Staphylococcus clinical isolate by broth microdilution method
Staphylococcus aureus [11] = experiment: Antibacterial activity against linezolid-resistant Staphylococcus aureus 01A1221 by broth microdilution method
Listeria monocytogenes = experiment: Antibacterial activity against Listeria monocytogenes clinical isolate by broth microdilution method
Enterococcus faecium [12] = experiment: Antibacterial activity against linezolid-resistant Enterococcus faecium 03B1076 by broth microdilution method
Streptococcus pyogenes = experiment: Antibacterial activity against Streptococcus pyogenes clinical isolate by broth microdilution method
Enterococcus faecalis [13] = experiment: Antibacterial activity against linezolid-resistant Enterococcus faecalis 03A1128 by broth microdilution method
Enterococcus faecalis [14] = experiment: Antibacterial activity against vancomycin-resistant Enterococcus faecalis clinical isolate by broth microdilution method
Enterococcus faecium [15] = experiment: Antibacterial activity against linezolid-resistant Enterococcus faecium 03B1075 by broth microdilution method
Enterococcus faecium [16] = experiment: Antibacterial activity against linezolid-resistant Enterococcus faecium 03B1078 by broth microdilution method
Staphylococcus aureus [17] = experiment: Antibacterial activity against glycopeptide-intermediate Staphylococcus aureus clinical isolate by broth microdilution method
Enterococcus faecium [18] = experiment: Antibacterial activity against linezolid-resistant Enterococcus faecium 03B1077 by broth microdilution method
Staphylococcus aureus [19] = experiment: Antibacterial activity against methicillin-resistant Staphylococcus aureus clinical isolate by broth microdilution method

`CC1(C)S[C@@H]2[C@H](NC(=O)Cc3ccccc3)C(=O)N2[C@H]1C(=O)O` [PENICILLIN G] gave an MIC50 (Streptococcus pneumoniae [1]) of 2 µg/mL (≈ 5.98 µM), an MIC90 (Streptococcus pneumoniae [1]) of 4 µg/mL (≈ 12 µM) and an MIC (Streptococcus pneumoniae [2]) of 0.015 µg/mL (≈ 0.0449 µM). It also gave an MIC50 (Streptococcus pneumoniae [2]) of 0.015 µg/mL (≈ 0.0449 µM) and an MIC90 (Streptococcus pneumoniae [2]) of 0.015 µg/mL (≈ 0.0449 µM).
Compound `CC(=O)NC[C@H]1CN(c2ccc(N3CCOCC3)c(F)c2)C(=O)O1` [LINEZOLID] has an MIC (Enterococcus faecium [3]) of 2 µg/mL (≈ 5.93 µM), an MIC (Enterococcus faecium [4]) of 32 µg/mL (≈ 94.9 µM) and an MIC50 (Corynebacterium sp.) of 1 µg/mL (≈ 2.96 µM). The MIC90 (Corynebacterium sp.) was 1 µg/mL (≈ 2.96 µM), the MIC50 (Streptococcus pneumoniae [1]) was 0.5 µg/mL (≈ 1.48 µM) and the MIC90 (Streptococcus pneumoniae [1]) was 1 µg/mL (≈ 2.96 µM). The MIC50 [5] was 0.5 µg/mL (≈ 1.48 µM), the MIC90 [5] was 1 µg/mL (≈ 2.96 µM) and the MIC50 (Staphylococcus aureus [6]) was 2 µg/mL (≈ 5.93 µM). For the same compound, the MIC90 (Staphylococcus aureus [6]) was 2 µg/mL (≈ 5.93 µM), the MIC (Enterococcus faecium [7]) was 2 µg/mL (≈ 5.93 µM) and the MIC50 (Enterococcus faecium [7]) was 2 µg/mL (≈ 5.93 µM). It also gave an MIC90 (Enterococcus faecium [7]) of 2 µg/mL (≈ 5.93 µM), an MIC50 (Streptococcus pneumoniae [2]) of 1 µg/mL (≈ 2.96 µM) and an MIC90 (Streptococcus pneumoniae [2]) of 1 µg/mL (≈ 2.96 µM). It also gave an MIC50 (Enterococcus faecium [8]) of 2 µg/mL (≈ 5.93 µM), an MIC90 (Enterococcus faecium [8]) of 4 µg/mL (≈ 11.9 µM) and an MIC50 (Enterococcus faecalis [9]) of 2 µg/mL (≈ 5.93 µM). It also gave an MIC90 (Enterococcus faecalis [9]) of 2 µg/mL (≈ 5.93 µM), an MIC (Staphylococcus aureus [10]) of over 32 µg/mL and an MIC50 (Staphylococcus) of 2 µg/mL (≈ 5.93 µM). It also gave an MIC90 (Staphylococcus) of 2 µg/mL (≈ 5.93 µM), an MIC (Staphylococcus aureus [11]) of over 32 µg/mL and an MIC (Listeria monocytogenes) of 2 µg/mL (≈ 5.93 µM). It also gave an MIC50 (Listeria monocytogenes) of 2 µg/mL (≈ 5.93 µM), an MIC90 (Listeria monocytogenes) of 2 µg/mL (≈ 5.93 µM) and an MIC (Enterococcus faecium [12]) of 32 µg/mL (≈ 94.9 µM). For the same compound, the MIC50 (Streptococcus pyogenes) was 2 µg/mL (≈ 5.93 µM), the MIC90 (Streptococcus pyogenes) was 2 µg/mL (≈ 5.93 µM) and the MIC (Enterococcus faecalis [13]) was over 32 µg/mL. The MIC50 (Enterococcus faecalis [14]) was 2 µg/mL (≈ 5.93 µM), the MIC90 (Enterococcus faecalis [14]) was 2 µg/mL (≈ 5.93 µM) and the MIC (Enterococcus faecium [15]) was 32 µg/mL (≈ 94.9 µM). It also gave an MIC (Enterococcus faecium [16]) of 32 µg/mL (≈ 94.9 µM), an MIC (Staphylococcus aureus [17]) of 0.5 µg/mL (≈ 1.48 µM) and an MIC (Enterococcus faecium [18]) of 8 µg/mL (≈ 23.7 µM). It also gave an MIC (Staphylococcus aureus [19]) of 1 µg/mL (≈ 2.96 µM), an MIC50 (Staphylococcus aureus [19]) of 1 µg/mL (≈ 2.96 µM) and an MIC90 (Staphylococcus aureus [19]) of 1 µg/mL (≈ 2.96 µM).
